We go through 14 molecules from ChEMBL document CHEMBL1201862, “PubChem BioAssay data set” (2004).

Test systems include SN12C; 786-0; OVCAR-8; T47D; MDA-N; HCT-15; MDA-MB-231; IGROV-1; PC-3; SNB-19; OVCAR-5; UACC-257; BT-549; MDA-MB-435; RXF 393.
Assay in all cases: inhibition of tumour cell growth, NCI panel, 48 h

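Step 1: Grow cells in 96-well plates. Step 2: Expose to compound for 48 hours at 5 concentrations. Step 3: Interpolate endpoints linearly; if unreached, use highest concentration. GI50 is the concentration that inhibits growth by half.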 Activity calls are given as the source filed them. Cut-off read from the data, not from the text of the source: active = GI50 up to about 1.1 µM and inactive = higher. A value given as a limit tells only on which side of the number the result lay.

In the case of `CCOC(=O)CCC(NC(=O)c1ccc(Nc2nc3ccccc3nc2C(=O)OCC)cc1)C(=O)OCC` (stereo unspecified), the GI50 was 15.7 µM (inactive) with SN12C; 1.85 µM (inactive) in the assay on 786-0; 2.75 µM (inactive) with OVCAR-8; 2.18 µM (inactive) in the assay on T47D; 3.89 µM (inactive) in the assay with MDA-N; 18.1 µM in the assay with HCT-15. Besides, the GI50 in the assay on MDA-MB-231 was 9.62 µM (inactive); with IGROV-1 it was 3.54 µM (inactive); in the assay with PC-3 it was 16.9 µM (inactive); with SNB-19 it was 3.94 µM (inactive); in the assay with OVCAR-5, > 28.6 µM (inactive); in the assay with UACC-257, 18.9 µM (inactive). The GI50 with BT-549 is 7.66 µM (inactive); in the assay with MDA-MB-435, 3.91 µM (inactive).
For `COc1ccc(CCCNC(=O)Cc2cc(OC)c(OC)cc2CO)cc1OC`, the GI50 is > 100 µM (inactive) in the assay on SN12C; > 100 µM (inactive) in the assay on 786-0; > 100 µM (inactive) with OVCAR-8; 23.3 µM (inactive) in the assay on T47D; > 100 µM (inactive) with MDA-N; more than 100 µM in the assay with HCT-15. For the same molecule, the GI50 with MDA-MB-231, in the assay on IGROV-1, in the assay with PC-3, in the assay with SNB-19, with OVCAR-5 and with UACC-257 was > 100 µM (inactive) in each case. The GI50 in the assay with BT-549 and in the assay with MDA-MB-435 was > 100 µM (inactive) in each case.
For the molecule `CCOP(=O)(Nc1ccc(-c2ccccc2)cc1)OCC`, the GI50 in the assay on RXF 393 was 34.6 µM (inactive); with 786-0 it was > 100 µM (inactive); in the assay with OVCAR-8, > 100 µM (inactive); in the assay on MDA-N, 88.9 µM (inactive); in the assay with HCT-15, more than 100 µM; in the assay with MDA-MB-231 it was > 100 µM (inactive). The GI50 with IGROV-1 was 71.3 µM (inactive); with PC-3, 86.5 µM (inactive); in the assay on SNB-19 it was > 100 µM (inactive); in the assay on OVCAR-5 it was 77.8 µM (inactive); in the assay on UACC-257, > 100 µM (inactive); in the assay with BT-549, > 100 µM (inactive). The GI50 with MDA-MB-435 was 91.6 µM (inactive).
With `COc1cc(/C=C2\N=C(C)N(n3c(-c4ccccc4)nc4ccccc4c3=O)C2=O)cc(OC)c1OC`, the GI50 with SN12C was > 100 µM (inactive); with 786-0, > 100 µM (inactive); in the assay with OVCAR-8 it was > 100 µM (inactive); in the assay on T47D, 82.4 µM (inactive); with MDA-N, > 100 µM (inactive); in the assay with HCT-15, more than 100 µM. Moreover, the GI50 in the assay with MDA-MB-231, in the assay on IGROV-1, in the assay with PC-3, in the assay on SNB-19, in the assay on UACC-257 and in the assay on BT-549 was > 100 µM (inactive) each time. In the assay on MDA-MB-435, the GI50 is > 100 µM (inactive).
As for `CCOC(=O)C1=C(C(=O)c2ccc(C)cc2)C(c2cccc([N+](=O)[O-])c2)C(C(=O)c2ccc(C)cc2)=C(C(=O)OCC)N1`, the GI50 with SN12C was 17.6 µM (inactive); in the assay with RXF 393, 21 µM (inactive); in the assay with 786-0 it was 16.2 µM (inactive); in the assay with OVCAR-8 it was 22.5 µM (inactive); in the assay with T47D, 2.41 µM (inactive); in the assay on HCT-15, 0.853 µM. Moreover, the GI50 was 13.9 µM (inactive) in the assay with MDA-MB-231; 16.2 µM (inactive) with IGROV-1; 23.2 µM (inactive) with PC-3; 6.08 µM (inactive) in the assay with SNB-19; 17.2 µM (inactive) with OVCAR-5; 21.4 µM (inactive) in the assay with UACC-257. Also, the GI50 in the assay with BT-549 is 21.1 µM (inactive); in the assay with MDA-MB-435, 16 µM (inactive).
As for `COc1cc(C2CC(C)(Nc3ccccc3)Oc3cc4c(cc32)OCO4)cc(OC)c1OC` (stereo unspecified), the GI50 with SN12C is 0.247 µM (active); in the assay with RXF 393 it was 0.222 µM (active); in the assay with 786-0 it was 0.298 µM (active); in the assay with OVCAR-8 it was 0.483 µM (active); in the assay on MDA-N it was 0.0412 µM (active); with HCT-15, 0.161 µM. Besides, the GI50 in the assay with MDA-MB-231 is 0.853 µM (active); in the assay with IGROV-1 it was 0.386 µM (active); in the assay on PC-3, 0.251 µM (active); with SNB-19, 0.736 µM (active); with OVCAR-5, 2.71 µM (inactive); in the assay with UACC-257, 2.2 µM (inactive). Also, the GI50 is 0.506 µM (active) with BT-549 and 0.0172 µM (active) in the assay on MDA-MB-435.
`NC1=CN(Cc2ccccc2)C2=N/C(=C\c3ccccc3)C(=O)N12`: the GI50 was > 100 µM (inactive) with SN12C; > 100 µM (inactive) in the assay with RXF 393; > 100 µM (inactive) in the assay with 786-0; > 100 µM (inactive) with OVCAR-8; > 100 µM (inactive) in the assay on T47D; more than 100 µM in the assay with HCT-15. For the same molecule, the GI50 with MDA-MB-231 was > 100 µM (inactive); in the assay on IGROV-1, > 100 µM (inactive); in the assay with PC-3, > 100 µM (inactive); in the assay on SNB-19 it was > 100 µM (inactive); in the assay with OVCAR-5 it was > 100 µM (inactive); with UACC-257 it was 40.1 µM (inactive). Further, the GI50 in the assay on BT-549 is > 100 µM (inactive); in the assay with MDA-MB-435, 50.1 µM (inactive).
In the case of `O=c1c2ccccc2c2c1c1c3ccccc3c(=O)c1c1c3ccccc3c(=O)c21`, the GI50 was > 100 µM (inactive) in the assay on SN12C; > 100 µM (inactive) with 786-0; > 100 µM (inactive) with OVCAR-8; > 100 µM (inactive) in the assay on T47D; > 100 µM (inactive) in the assay with MDA-N; more than 100 µM with HCT-15. Also, the GI50 in the assay on MDA-MB-231, in the assay on IGROV-1, in the assay with PC-3, in the assay with SNB-19, in the assay with OVCAR-5 and with UACC-257 was > 100 µM (inactive) in each case. The GI50 with BT-549 and in the assay on MDA-MB-435 was > 100 µM (inactive) in each case.
Turning to `Cc1ccc(S(=O)(=O)N2CCSCCSCCSCCN(S(=O)(=O)c3ccc(C)cc3)CC2)cc1`, the GI50 in the assay with SN12C, with RXF 393, in the assay on 786-0, in the assay on OVCAR-8, with T47D and with MDA-N was > 100 µM (inactive) each time. Besides, the GI50 in the assay with MDA-MB-231, with IGROV-1, in the assay with SNB-19, with OVCAR-5, in the assay with UACC-257 and in the assay with BT-549 was > 100 µM (inactive) in each case. Moreover, in the assay with MDA-MB-435, the GI50 is > 100 µM (inactive).
Take `CCOC(=O)c1nc2c3c(ncn2n1)Oc1c(c(-c2ccccc2)nn1-c1ccccc1)C3c1ccc(OC)c(OC)c1` (stereo unspecified): the GI50 was > 100 µM (inactive) in the assay on SN12C; 23.4 µM (inactive) in the assay with RXF 393; 31 µM (inactive) in the assay with 786-0; 25.9 µM (inactive) with OVCAR-8; > 100 µM (inactive) with MDA-N; more than 100 µM with HCT-15. Also, the GI50 in the assay on MDA-MB-231 was 37.2 µM (inactive); in the assay on IGROV-1, 52.1 µM (inactive); in the assay on PC-3, > 100 µM (inactive); in the assay on SNB-19, 24.3 µM (inactive); in the assay with OVCAR-5, > 100 µM (inactive); with UACC-257, > 100 µM (inactive). The GI50 with BT-549 was 36.3 µM (inactive); in the assay on MDA-MB-435, > 100 µM (inactive).
Turning to `COC(=O)c1ccccc1C1CN=NC12Cc1cccc(C)c1C2=O` (stereo unspecified), the GI50 was 36.1 µM (inactive) in the assay with SN12C; 11.5 µM (inactive) in the assay on RXF 393; 90.4 µM (inactive) in the assay on 786-0; 42.4 µM (inactive) with OVCAR-8; 16.6 µM (inactive) with T47D; 46.7 µM (inactive) with MDA-N. Besides, the GI50 in the assay with HCT-15 is 46.5 µM; with MDA-MB-231 it was > 100 µM (inactive); with IGROV-1, 59.8 µM (inactive); in the assay with SNB-19, 70 µM (inactive); in the assay on OVCAR-5 it was > 100 µM (inactive); with UACC-257, 37.3 µM (inactive). Also, the values for the GI50 in the assay on BT-549 and in the assay on MDA-MB-435 were 42.4 µM (inactive) and 37.4 µM (inactive), respectively.
Take `COc1ccc2c(c1)C1Oc3ccccc3CC1(O)CO2` (stereo unspecified): the GI50 with SN12C was > 100 µM (inactive); with 786-0, > 100 µM (inactive); with OVCAR-8, > 100 µM (inactive); with T47D, > 100 µM (inactive); in the assay with MDA-N, > 100 µM (inactive); with HCT-15, more than 100 µM. Besides, the GI50 with MDA-MB-231, in the assay with IGROV-1, in the assay on PC-3, in the assay on OVCAR-5, in the assay on UACC-257 and with BT-549 was > 100 µM (inactive) throughout. The GI50 in the assay on MDA-MB-435 is > 100 µM (inactive).
On to `COc1ccc2c3c1O[C@H]1C(=O)C=CC4(n5[nH]c(=O)n(-c6ccccc6)c5=O)C(C2)N(C)CCC314` (stereo partly specified), for which the GI50 with SN12C is > 100 µM (inactive); in the assay with 786-0, > 100 µM (inactive); in the assay on OVCAR-8, > 100 µM (inactive); in the assay with T47D it was > 100 µM (inactive); in the assay on MDA-N, > 100 µM (inactive); in the assay on HCT-15 it was more than 100 µM. Besides, the GI50 in the assay with MDA-MB-231, with IGROV-1, with PC-3, with SNB-19, in the assay with OVCAR-5 and in the assay with BT-549 was > 100 µM (inactive) in each case. The GI50 in the assay with MDA-MB-435 is > 100 µM (inactive).
With `Cc1nnc(N)nc1/C=C\c1ccc(N(C)C)cc1`, the GI50 is > 100 µM (inactive) in the assay with SN12C; > 40.1 µM (inactive) in the assay with RXF 393; > 26.7 µM (inactive) in the assay with 786-0; 22.9 µM (inactive) with OVCAR-8; > 24.6 µM (inactive) with T47D; 17.4 µM (inactive) in the assay on MDA-N. Besides, the GI50 in the assay on HCT-15 was 2.99 µM; in the assay with IGROV-1, 37.5 µM (inactive); in the assay on PC-3, 30.7 µM (inactive); in the assay on SNB-19, 15.2 µM (inactive); in the assay on OVCAR-5, > 86.3 µM (inactive); with UACC-257 it was 22.5 µM (inactive). The GI50 in the assay with BT-549 is > 20.9 µM (inactive); with MDA-MB-435, 6.27 µM (inactive).
